Usually TGI stands for the concentration giving total growth inhibition. For orientation: GI50 means the concentration at which growth is held to half of that of the control.

What all share (experiment): DTP human tumour cell line panel, 48 h
Experiment [1] deals with K-562 leukemia.
Experiment [2] relates to CAKI-1 renal.
Experiment [3] concerns SF-295 CNS.
Experiment [4] has as its system CCRF-CEM leukemia.
In experiment [5] the test system is DU-145 prostate.
For experiment [6], the system named is MALME-3M melanoma.
Experiment [7] deals with UO-31 renal.
Experiment [8] has as its system SK-MEL-5 melanoma.
The subject of experiment [9] is ACHN renal.
In experiment [10] the test system is HOP-92 NSCLC.

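Test compounds were applied to cells in 96-well plates for 48 hours at 5 doses. GI50 marks 50% less growth. Definition used: TGI = concentration required for complete inhibition of growth.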 A value given as a limit tells only on which side of the number the result lay.

Regarding `CC1=NC(=Cc2ccc([N+](=O)[O-])cc2)C(=O)N1n1c(-c2ccccc2)nc2ccccc2c1=O`, the TGI in experiment [1], in experiment [2], in experiment [3], in experiment [4], in [5] and in experiment [6] was greater than 100 µM in each case. Moreover, the TGI in [7] and in experiment [8] was greater than 100 µM in each case.

On to `CC(=O)[CH-]C(=O)c1ccccc1.CC(=O)[CH-]C(=O)c1ccccc1.C[C@]12CCC(=O)C=C1CC[C@@H]1C2CC[C@@]2(C)C1CC[C@]2(C)[O-].C[C@]12CCC(=O)C=C1CC[C@@H]1C2CC[C@@]2(C)C1CC[C@]2(C)[O-].Cl.[Ti+4]` (stereo partly specified), for which the GI50 in experiment [1] was 3.76 µM; in [2], 13.3 µM; in experiment [3], 18.4 µM; in [4] it was 9.78 µM; in experiment [9] it was 21.6 µM; in experiment [6], 13.2 µM. Further, the GI50 in [7] is 24.2 µM. Further, the TGI was greater than 100 µM in experiment [1]; 38.4 µM in [2]; 57.3 µM in [3]; greater than 100 µM in experiment [4]; 87.8 µM in experiment [9]; 37.1 µM in [6]. Besides, the TGI in experiment [7] stood at 85.3 µM.

For the molecule `CN(C)c1cc[n+](-c2nc(/N=C(\[O-])C(F)(F)F)nc3c2ncn3C2CC(O)C(CO)O2)cc1` (stereo unspecified), the TGI in experiment [1], in experiment [3], in experiment [4], in [9], in experiment [5] and in experiment [6] was greater than 100 µM in each case. Moreover, the TGI in experiment [7] and in experiment [8] was greater than 100 µM in each case.

With `CSc1c(C(=O)Nc2ccc(Cl)cc2)c(N)n(N)c(=O)c1C#N`, the TGI in experiment [1], in experiment [2], in experiment [4], in experiment [5], in [6] and in [7] was greater than 100 µM in each case. The TGI in experiment [8] is greater than 100 µM.

Turning to `CCc1ccccc1NNc1cc(=O)[nH]c(=O)[nH]1`, the TGI in [10] was 31.3 µM; in experiment [1] it was greater than 100 µM; in experiment [2], 21.5 µM; in experiment [3] it was 36.2 µM; in [4] it was 82.8 µM; in experiment [9], 32.7 µM. In addition, the TGI in [5] was greater than 100 µM; in [7] it was 31.1 µM; in experiment [8] it was 32.4 µM.

As for `CC(C)(C)OC(=O)NCCCCC(NC(=O)c1ccccc1)C(N)=O` (stereo unspecified), the TGI in experiment [1], in experiment [2], in [3], in experiment [4], in experiment [9] and in [5] was greater than 100 µM each time. In addition, the TGI in experiment [6], in [7] and in [8] was greater than 100 µM in each case.

Turning to `COc1cc(C2c3cc4c(cc3OC(NCCO)C2C)OCO4)cc(OC)c1OC` (stereo unspecified), the TGI in experiment [10] was 93 µM; in [2], greater than 54.3 µM; in experiment [9], greater than 91.5 µM; in experiment [5], greater than 100 µM; in [6], greater than 100 µM; in [7], greater than 76.4 µM. Moreover, in experiment [8], the TGI was determined as 13.4 µM.

Turning to `COc1ccc(/C=N/n2cnc3[nH]c(C)c(Cc4ccccc4)c3c2=N)cc1`, the TGI in experiment [10], in experiment [2], in experiment [3], in experiment [4], in [9] and in [5] was greater than 100 µM throughout. For the same molecule, the TGI in experiment [6], in [7] and in experiment [8] was greater than 100 µM each time.

Take `NC(Cc1ccc(S(=O)(=O)O)cc1)C(=O)NC(Cc1ccc(S(=O)(=O)O)cc1)C(=O)O` (stereo unspecified): the TGI in experiment [1], in experiment [2], in [3], in experiment [4], in [9] and in experiment [5] was greater than 100 µM in each case. For the same molecule, the TGI in [6], in experiment [7] and in experiment [8] was greater than 100 µM throughout.

With `O=C1Nc2ccccc2Nc2ccncc21`, the TGI in experiment [10], in experiment [1], in [2], in experiment [3], in experiment [4] and in experiment [6] was greater than 100 µM each time. For the same molecule, the TGI in experiment [7] and in experiment [8] was greater than 100 µM in each case.

On to `COc1cc(C2c3cc4c(cc3OC(N3CCNCC3)C2C)OCO4)cc(OC)c1OC` (stereo unspecified), for which the TGI in experiment [10] is 24.8 µM; in [1], 10.9 µM; in experiment [2], 4.29 µM; in [3] it was 0.822 µM; in experiment [4], 17.7 µM; in experiment [9], 48.7 µM. For the same molecule, the TGI in [5] is greater than 28.5 µM; in [7] it was 15.6 µM; in experiment [8] it was 4.03 µM.

As to `Cc1ccc(NC(=O)C(=O)CC(=O)c2sc(Nc3c(C)cccc3C)nc2C)cc1C`, the TGI in experiment [10], in experiment [1], in [2], in experiment [3], in experiment [4] and in experiment [9] was greater than 100 µM each time. For the same molecule, the TGI in experiment [5], in experiment [7] and in [8] was greater than 100 µM in each case.

Turning to `CC(C)(C)N(Cc1ccc2c(c1)OCO2)C(=O)/C=C\Sc1ccccc1`, the TGI in experiment [10] is 91 µM; in experiment [1] it was greater than 100 µM; in experiment [2], greater than 100 µM; in experiment [3] it was greater than 100 µM; in experiment [4], greater than 100 µM; in experiment [9], greater than 100 µM. Besides, the TGI in experiment [5], in [7] and in experiment [8] was greater than 100 µM each time.

As for `CC(C)C1N(C)c2ccc(Cl)cc2[C@H]2c3ccccc3CCN12` (stereo partly specified), the TGI in experiment [10], in experiment [1], in [3], in experiment [4], in [9] and in experiment [5] was greater than 100 µM in each case. For the same molecule, the TGI in experiment [7] was greater than 100 µM.

As to `C[C@H]1S[C@H](c2c(Cl)cccc2Cl)N2Cc3ccccc3N=C12`, the TGI in experiment [10] was greater than 100 µM; in experiment [1], greater than 100 µM; in experiment [2], greater than 100 µM; in [3], 21.9 µM; in [4], greater than 100 µM; in [9] it was 26.5 µM. Besides, the TGI in [5] stood at 27.5 µM; in experiment [7], 26.3 µM; in [8] it was 23.3 µM.

The values above are taken from PubChem BioAssay (NCI).
